According to US9266829B2, “Quinone compounds and their uses for the treatment of cancer” (Onco-NX Limited, priority 2012, dated 2016):

Experiments:
[1] = test system: DT-diaphorase expressing cells; experiment: Apoptosis by Annexin V binding, DT-diaphorase expressing cells; type: cell-based, human
Procedure: Based on the method described in Martin et al. (Journal of Experimental Medicine. 182, 1545-1556. 1995), the induction of apoptosis caused by the compounds of the present invention was determined.

[2] = test system: MDA-MB-468-MOCK; experiment: In vivo hollow fibre assay, MDA-MB-468-MOCK; conditions: fibres at i.p. site; i.p. dosing days 3-6; nude mice; p<0.01
Procedure: (§1) The activity of Es5 (4.65) was evaluated in vivo against 3 cancer cell lines H460, MDA-MB-468-NQ01 and MDA-MB-468-MOCK using the in vivo hollow fibre assay (HFA), with fibres implanted at both intraperitoneal (i.p.) and subcutaneous (s.c.) sites. Es5 and the control agent Doxorubicin were administered as multiple doses by intraperitoneal injection (i.p.) on days 3, 4, 5 & 6 at 0.5 mg/kg/day and 2.5 mg/kg/day respectively.
(§2) Three human tumour cell lines were selected for analysis: H460 NSCLC (from ICT) and two breast carcinoma lines MDA-MB-468-NQ01 and MDA-MB-468-MOCK (both supplied by Onco-NX). Cells were cultured in RPMI 1640 cell culture medium supplemented with 1 mM sodium pyruvate, 2 mM L-glutamine and 10% foetal bovine serum (all from Sigma), and maintained as monolayer cultures at 37° C. in a humidified 5% CO2 environment.
Female Balb/C immunodeficient nude mice aged 6-8 weeks were used (Harlan UK, Blackthorn, UK). Mice were kept in cages housed in isolation cabinets in an air-conditioned room with regular alternating cycles of light and darkness. They received Teklad 2018 diet (Harlan, Blackthorn, UK) and water ad libitum. […]
(§3) Mice were sacrificed on day 7 post-implantation, fibres removed, and cell survival analysed using a modified MTT assay, comparing absorbances seen for the treated groups with the corresponding untreated control group. […]

[3] = test system: MDA NQ01; experiment: IC50 by MTT assay on NQ01 cells; type: cell-based, human
[4] = test system: serum esterase; experiment: Degradation by serum esterase (hydrolysis in serum); type: in vitro ADME
Source text: (§4) The cleavage of Es5 by esterase and cell extracts and its activation were investigated.

[5] = test system: porcine brain extracts; experiment: Cleavage by porcine brain extracts; type: in vitro ADME; conditions: in words; result of porcine esterase repeated
Source text: as §4

[6] = test system: H460 NSCLC; experiment: In vivo hollow fibre assay, H460; conditions: i.p. dosing days 3-6, nude mice
Procedure: as §1, §2
Female Balb/C immunodeficient nude mice aged 6-8 weeks were used (Harlan UK, Blackthorn, UK). Mice were kept in cages housed in isolation cabinets in an air-conditioned room with regular alternating cycles of light and darkness. They received Teklad 2018 diet (Harlan, Blackthorn, UK) and water ad libitum. All animal procedures were carried out under a project licence issued by the UK Home Office and UKCCCR guidelines were followed throughout.
Cells were loaded into sterilised colour-coded PVDF Spectra/Por hollow fibres (HF) (Spectrum Medical Inc, Houston, Tex., USA). Briefly cells were harvested and resuspended in cell culture medium at the required cell density. This preparation was then loaded into the HF and the ends were clamped and heat-sealed. […]
as §3

[7] = physchem

SMILES: CC(=O)OCCCC1=C(N2CC2)C(=O)C(C)=C(N2CC2)C1=O [Es5, Acetic Acid 3-(2,5-bis-aziridin-1-yl-4-methyl-3,6-dioxo-cyclohexa-1,4-dienyl)-propyl ester]
- time to induction of programmed cell death (Annexin V binding) [1]: ≤ 2 h
- cell survival compared to the untreated control, MDA-MB-468-MOCK, i.p. site [2]: significant efficacy
- IC50 ([3]; Homo sapiens, MTT assay): 0.23 nM
- selectivity towards cells that express DT-diaphorase ([3]; IC50 values, MTT assay): excellent selectivity
- MDA468 to NQ01 differential ([3]; ratio of IC50 values): > 80 fold
- Degradation by serum esterase, t90 ([4]; T90 = time taken to degrade to 90% of starting concentration): t90 90 mins
- half-life ([4]; serum, read-out: hydrolysis in serum, t1/2): 100 min
- cleavage by porcine brain extracts [5]: rapidly cleaved
- cell survival compared to the untreated control, H460, i.p. site ([6]; fibres at i.p. site, p<0.01): significant efficacy
- cell survival compared to the untreated control, H460, s.c. site ([6]; fibres at s.c. site): significant efficacy
- half-life [7]: < 1440 min
